Reference: ChEMBL document CHEMBL6083212, “The synthesis and bioactivities of ROCK2 inhibitors with 1,2-dithiolan-3-yl motif” (RSC Med Chem, 2024)
Activity calls are given as the source filed them. No cut-off for these calls is given here.

Columns and labels:
[1] = Cytotoxicity against mouse BV-2 cells by MTT assay; assay type: toxicity, cell-based; conditions: read-out: TC50 (the source's name)
BV-2 [2] = test: Antiinflammatory activity in LPS-induced mouse BV-2 cells assessed as inhibition of TNF-alpha production at […] incubated for 24 hrs by ELISA analysis; assay type: functional; design: dose or concentration left out as unconfirmed
BV-2 [3] = test: Antiinflammatory activity in LPS-induced mouse BV-2 cells assessed as inhibition of IL-6 production at […] incubated for 24 hrs by ELISA analysis; assay type: functional; design: dose or concentration left out as unconfirmed
[4] = Antioxidant activity assessed as DPPH radical scavenging activity at 1 mM incubated for 30 mins by absorbance based analysis; assay type: functional
[5] = Tmax in Sprague-Dawley rat at 10 mg/kg, iv measured upto 24 hrs by LC-MS analysis; assay type: ADME, organism-based; conditions: in vivo
[6] = Oral bioavailability in Sprague-Dawley rat at 10 mg/kg measured upto 24 hrs by LC-MS analysis; assay type: ADME, organism-based; conditions: in vivo
[7] = AUC (0 to infinity) in Sprague-Dawley rat at 10 mg/kg, iv measured upto 24 hrs by LC-MS analysis; assay type: ADME, organism-based; conditions: in vivo
[8] = Acute toxicity in C57BL/6 mouse assessed as change in mental state at 50 mg/kg, iv measured for 14 days; assay type: organism-based; conditions: in vivo, 336 h, time 14 day
[9] = Apparent clearance during terminal phase in Sprague-Dawley rat at 10 mg/kg, ip measured upto 24 hrs by LC-MS analysis; assay type: ADME, organism-based; conditions: in vivo, read-out: CLz/F (converted)
Mus musculus = test: Anti-inflammatory activity in CFA-induced acute arthritis C57BL/6 mouse model assessed as effect on foot swelling at 5 to 10 mg/kg, iv measured for 12 hrs; assay type: functional, organism-based; conditions: dose 5-10 mg/kg
[10] = Cmax in Sprague-Dawley rat at 10 mg/kg, iv measured upto 24 hrs by LC-MS analysis; assay type: ADME, organism-based; conditions: in vivo
[11] = Apparent clearance during terminal phase in Sprague-Dawley rat at 10 mg/kg, iv measured upto 24 hrs by LC-MS analysis; assay type: ADME, organism-based; conditions: in vivo
[12] = Apparent volume of distribution during terminal phase in Sprague-Dawley rat at 10 mg/kg, iv measured upto 24 hrs by LC-MS analysis; assay type: ADME, organism-based; conditions: in vivo
[13] = AUC (0 to t) in Sprague-Dawley rat at 10 mg/kg, ip measured upto 24 hrs by LC-MS analysis; assay type: ADME, organism-based; conditions: in vivo
[14] = Cmax in Sprague-Dawley rat at 10 mg/kg, ip measured upto 24 hrs by LC-MS analysis; assay type: ADME, organism-based; conditions: in vivo
[15] = Acute toxicity in C57BL/6 mouse assessed as change in body weight at 50 mg/kg, iv measured for 14 days; assay type: organism-based; conditions: in vivo, 336 h, time 14 day
[16] = Tmax in Sprague-Dawley rat at 10 mg/kg, ip measured upto 24 hrs by LC-MS analysis; assay type: ADME, organism-based; conditions: in vivo
[17] = AUC (0 to infinity) in Sprague-Dawley rat at 10 mg/kg, ip measured upto 24 hrs by LC-MS analysis; assay type: ADME, organism-based; conditions: in vivo
[18] = Acute toxicity in C57BL/6 mouse assessed as change in organ index at 50 mg/kg, iv measured for 14 days; assay type: organism-based; conditions: in vivo, 336 h, time 14 day
[19] = Apparent volume of distribution during terminal phase in Sprague-Dawley rat at 10 mg/kg, ip measured upto 24 hrs by LC-MS analysis; assay type: ADME, organism-based; conditions: in vivo, read-out: Vz/F
[20] = AUC (0 to t) in Sprague-Dawley rat at 10 mg/kg, iv measured upto 24 hrs by LC-MS analysis; assay type: ADME, organism-based; conditions: in vivo
[21] = Drug metabolism in rat plasma assessed as 5-(1-oxodithiolan-3-yl)pentyl 4-(5-isoquinolylsulfonyl)-1,4-diazepane-1-carboxylate metabolite formation at 10 mg/kg, iv; assay type: ADME, organism-based; conditions: in vivo
[22] = Drug metabolism in rat plasma assessed as 5-(1,2-dioxodithiolan-3-yl)pentyl 4-(5-isoquinolylsulfonyl)-1,4-diazepane-1-carboxylate metabolite formation at 10 mg/kg, iv; assay type: ADME, organism-based; conditions: in vivo
[23] = Drug metabolism in rat plasma assessed as 5-(1,1-dioxodithiolan-3-yl)pentyl 4-(5-isoquinolylsulfonyl)-1,4-diazepane-1-carboxylate metabolite formation at 10 mg/kg, iv; assay type: ADME, organism-based; conditions: in vivo

Row | Structure (SMILES) | CC50 [1] | inhibition (BV-2 [2]) | inhibition (BV-2 [3]) | Activity [4] | other results
1 | CC(=O)Oc1ccc(/C=C/C(=O)N2CCCN(S(=O)(=O)c3cccc4cnccc34)CC2)cc1 | > 100 µM | 49.5% | 26.3% | 29.2% | 
2 | O=S(=O)(c1cccc2cnccc12)N1CCCN(C(c2ccccc2)c2ccccc2)CC1 | > 100 µM | inactive | inactive | 22.4% | 
3 | COc1cc(/C=C/C(=O)N2CCCN(S(=O)(=O)c3cccc4cnccc34)CC2)ccc1O | > 100 µM | 0.08% | inactive | 93% | 
4 | COc1cc(/C=C/C(=O)N2CCCN(S(=O)(=O)c3cccc4cnccc34)CC2)ccc1OCCO[N+](=O)[O-] | > 100 µM | 45.8% | 2.78% | 23.9% | 
5 | O=C(CCCCC1CCSS1)N1CCN(C(c2ccc(F)cc2)c2ccc(F)cc2)CC1 (stereo unspecified) | > 100 µM | 70.7% | 53.8% | 92% | Tmax [5]: 4.98 min; bioavailability [6]: 48.5%; AUC(0-inf) [7]: 3360 ng·h/mL; Activity [8]: Non-toxic; CL/F [9]: 102 mL/min/kg; Activity (Mus musculus): Active; Cmax [10]: 20000 ng/mL; CLz/F [11]: 48.3 mL/min/kg; Vz/F [12]: 0.7 L/kg; AUC(0-t) at 24 h [13]: 1630 ng·h/mL; Cmax [14]: 9950 ng/mL; Activity [15]: Non-toxic; Tmax [16]: 4.98 min; AUC(0-inf) [17]: 1660 ng·h/mL; Activity [18]: Non-toxic; Vd/F [19]: 6.1 L/kg; AUC(0-t) at 24 h [20]: 3350 ng·h/mL
6 | COc1cc(/C=C/C(=O)N2CCCN(S(=O)(=O)c3cccc4cnccc34)CC2)ccc1OCCCO[N+](=O)[O-] | > 100 µM | 30.9% | 6.42% | 19.1% | 
7 | O=C(CCCCC1CCSS1)N1CCN(S(=O)(=O)c2cccc3cnccc23)CC1 (stereo unspecified) | > 100 µM | 9.02% | inactive | 51.2% | 
8 | COc1cc(/C=C/C(=O)N2CCCN(S(=O)(=O)c3cccc4cnccc34)CC2)cc(OC)c1O | > 100 µM | 34.5% | 0.07% | 90.9% | 
9 | COc1cc(/C=C/C(=O)N2CCCN(S(=O)(=O)c3cccc4cnccc34)CC2)ccc1OCCCCCO[N+](=O)[O-] | > 100 µM | 34.9% | 48.5% | 25.3% | 
10 | COc1cc(/C=C/C(=O)N2CCCN(S(=O)(=O)c3cccc4cnccc34)CC2)ccc1OCCCCO[N+](=O)[O-] | > 100 µM | 57.5% | 36.3% | 20.7% | 
11 | CC1(C)C=Cc2cc(/C=C/C(=O)N3CCCN(S(=O)(=O)c4cccc5cnccc45)CC3)ccc2O1 | 64.4 µM | 38.5% | inactive | 33.8% | 
12 | O=S(=O)(c1cccc2cnccc12)N1CCCNCC1 [FASUDIL] |  | 30.1% | 82.6% | 99% | 
13 | COc1cc(/C=C/C(=O)N2CCCN(S(=O)(=O)c3cccc4cnccc34)CC2)ccc1OC(C)=O | > 100 µM | inactive | inactive | 28.7% | 
14 | O=S(=O)(c1cccc2cnccc12)N1CCCN(C(c2ccc(F)cc2)c2ccc(F)cc2)CC1 | 62 µM | inactive | inactive | 22.7% | 
15 | O=C(CCCCC1CCSS1)N1CCCN(S(=O)(=O)c2cccc3c(O)nccc23)CC1 (stereo unspecified) | > 100 µM | inactive | inactive | 24.4% | 
16 | COc1cc(/C=C/C(=O)OCCCCCC2CCSS2)ccc1OC(C)=O (stereo unspecified) | > 100 µM | inactive | inactive | 26.1% | 
17 | O=S(=O)(c1cccc2cnccc12)N1CCN(C(c2ccccc2)c2ccccc2)CC1 | > 20 µM | 25.8% | inactive | 26.5% | 
18 | CC1(C)C=Cc2cc(/C=C/C(=O)N3CCN(S(=O)(=O)c4cccc5cnccc45)CC3)ccc2O1 | > 100 µM | 39.2% | inactive | 25.4% | 
19 | COc1cc(/C=C/C(=O)N2CCCN(S(=O)(=O)c3cccc4c(O)nccc34)CC2)ccc1OC(C)=O | > 20 µM | 22.6% | 25.9% | 48.7% | 
20 | COc1cc(/C=C/C(=O)N2CCCN(S(=O)(=O)c3cccc4cnccc34)CC2)cc(OC)c1OC(C)=O | > 100 µM | 45.9% | 35% | 22.7% | 
21 | CC(=O)Oc1ccccc1C(=O)OCCCCCC1CCSS1 (stereo unspecified) | 9.19 µM | 51.3% | 27.8% | 28.5% | 
22 | O=S(=O)(c1cccc2cnccc12)N1CCN(C(c2ccc(F)cc2)c2ccc(F)cc2)CC1 | > 20 µM | inactive | inactive | 23.4% | 
23 | CC(=O)Oc1ccc(/C=C/C(=O)N2CCCN(S(=O)(=O)c3cccc4cnccc34)CC2)cc1OC(C)=O | 44.2 µM | 17.8% | 22.6% | 82.4% | 
24 | O=C(CCCCC1CCSS1)N1CCN(C(c2ccccc2)c2ccccc2)CC1 (stereo unspecified) | 63 µM | 41% | 49.6% | 50.5% | 
25 | CC1(C)C=Cc2cc(C(=O)N3CCCN(S(=O)(=O)c4cccc5cnccc45)CC3)ccc2O1 | > 100 µM | 31.5% | inactive | 48.7% | 
26 | O=C(OCCCCCC1CCSS1)N1CCCN(S(=O)(=O)c2cccc3cnccc23)CC1 (stereo unspecified) | > 100 µM | 53.9% | 86.7% | 91.4% | Tmax [5]: 12 min; AUC(0-inf) [7]: 1950 ng·h/mL; Activity [8]: Non-toxic; Drug metabolism [21]: metabolite_detected; Cmax [10]: 12200 ng/mL; Drug metabolism [22]: metabolite_detected; Drug metabolism [23]: metabolite_detected; CLz/F [11]: 93.3 mL/min/kg; Vz/F [12]: 1.3 L/kg; Activity [15]: Non-toxic; Activity [18]: Non-toxic; AUC(0-t) at 24 h [20]: 1940 ng·h/mL
27 | COc1cc(/C=C/C(=O)N2CCCN(S(=O)(=O)c3cccc4cnccc34)CC2)ccc1OCCCCCCO[N+](=O)[O-] | > 100 µM | 53.8% | 56.1% | 24.3% | 
